Results as given in ChEMBL document CHEMBL3351686, “Facile and diastereoselective synthesis of 3,2'-spiropyrrolidine-oxindoles derivatives, their molecular docking and antiproliferative activities” (2015).
In brackets after ≈: the same amount, converted by molar mass.

Tests used:
Shigella flexneri [1] = experiment: Antibacterial activity against Shigella flexneri MTCC 1457 assessed as inhibition of visual growth after 24 hrs; assay type: functional; settings: MTCC 1457, 24 h
Micrococcus luteus [2] = experiment: Antibacterial activity against Micrococcus luteus MTCC 106 assessed as inhibition of visual growth after 24 hrs; assay type: functional; settings: MTCC 106, 24 h
Staphylococcus aureus [3] = experiment: Antibacterial activity against methicillin-resistant Staphylococcus aureus assessed as zone of inhibition at 1 mg/disc after 24 hrs by disc diffusion method; assay type: functional
Klebsiella pneumoniae [4] = experiment: Antibacterial activity against Klebsiella pneumoniae MTCC 109 assessed as zone of inhibition at 1 mg/disc after 24 hrs by disc diffusion method; assay type: functional
Shigella flexneri [5] = experiment: Antibacterial activity against Shigella flexneri MTCC 1457 assessed as zone of inhibition at 1 mg/disc after 24 hrs by disc diffusion method; assay type: functional
Micrococcus luteus [6] = experiment: Antibacterial activity against Micrococcus luteus MTCC 106 assessed as zone of inhibition at 1 mg/disc after 24 hrs by disc diffusion method; assay type: functional
Salmonella typhimurium [7] = experiment: Antibacterial activity against Salmonella typhimurium MTCC 1251 assessed as zone of inhibition at 1 mg/disc after 24 hrs by disc diffusion method; assay type: functional, Salmonella enterica subsp. enterica serovar Typhimurium
Staphylococcus aureus [8] = experiment: Antibacterial activity against Staphylococcus aureus MTCC 96 assessed as zone of inhibition at 1 mg/disc after 24 hrs by disc diffusion method; assay type: functional
[9] = test system: Staphylococcus epidermidis; experiment: Antibacterial activity against Staphylococcus epidermidis MTCC 3615 assessed as inhibition of visual growth after 24 hrs; assay type: functional; settings: MTCC 3615, 24 h
Proteus vulgaris [10] = experiment: Antibacterial activity against Proteus vulgaris MTCC 1771 assessed as zone of inhibition at 1 mg/disc after 24 hrs by disc diffusion method; assay type: functional
Klebsiella aerogenes [11] = experiment: Antibacterial activity against Enterobacter aerogenes MTCC 111 assessed as zone of inhibition at 1 mg/disc after 24 hrs by disc diffusion method; assay type: functional
Proteus vulgaris [12] = experiment: Antibacterial activity against Proteus vulgaris MTCC 1771 assessed as inhibition of visual growth after 24 hrs; assay type: functional; settings: MTCC 1771, 24 h
Candida albicans [13] = experiment: Antifungal activity against Candida albicans MTCC 227 assessed as zone of inhibition at 1 mg/disc after 48 hrs by disc diffusion method; assay type: functional
Klebsiella aerogenes [14] = experiment: Antibacterial activity against Enterobacter aerogenes MTCC 111 assessed as inhibition of visual growth after 24 hrs; assay type: functional; settings: MTCC 111, 24 h
Malassezia pachydermatis [15] = experiment: Antifungal activity against Malassezia pachydermatis assessed as zone of inhibition at 1 mg/disc after 48 hrs by disc diffusion method; assay type: functional
Klebsiella pneumoniae [16] = experiment: Antibacterial activity against Klebsiella pneumoniae MTCC 109 assessed as inhibition of visual growth after 24 hrs; assay type: functional; settings: MTCC 109, 24 h
Staphylococcus aureus [17] = experiment: Antibacterial activity against Staphylococcus aureus MTCC 96 assessed as inhibition of visual growth after 24 hrs; assay type: functional; settings: MTCC 96, 24 h
Staphylococcus aureus [18] = experiment: Antibacterial activity against methicillin-resistant Staphylococcus aureus assessed as inhibition of visual growth after 24 hrs; assay type: functional
Salmonella typhimurium [19] = experiment: Antibacterial activity against Salmonella typhimurium MTCC 1251 assessed as inhibition of visual growth after 24 hrs; assay type: functional, Salmonella enterica subsp. enterica serovar Typhimurium; settings: Salmonella enterica, MTCC 1251, 24 h
[20] = test system: Staphylococcus epidermidis; experiment: Antibacterial activity against Staphylococcus epidermidis MTCC 3615 assessed as zone of inhibition at 1 mg/disc after 24 hrs by disc diffusion method; assay type: functional
Candida albicans [21] = experiment: Antifungal activity against Candida albicans MTCC 227 assessed as inhibition of visual growth after 48 to 72 hrs; assay type: functional
Malassezia pachydermatis [22] = experiment: Antifungal activity against Malassezia pachydermatis assessed as inhibition of visual growth after 48 to 72 hrs; assay type: functional

SMILES | MIC (Shigella flexneri [1]) [µg/mL] | MIC (Micrococcus luteus [2]) [µg/mL] | inhibition zone (IZ) (Staphylococcus aureus [3]) [mm] | inhibition zone (IZ) (Klebsiella pneumoniae [4]) [mm] | inhibition zone (IZ) (Shigella flexneri [5]) [mm] | inhibition zone (IZ) (Micrococcus luteus [6]) [mm] | inhibition zone (IZ) (Salmonella typhimurium [7]) [mm] | inhibition zone (IZ) (Staphylococcus aureus [8]) [mm] | MIC [9] [µg/mL] | inhibition zone (IZ) (Proteus vulgaris [10]) [mm] | inhibition zone (IZ) (Klebsiella aerogenes [11]) [mm] | MIC (Proteus vulgaris [12]) [µg/mL] | inhibition zone (IZ) (Candida albicans [13]) [mm] | MIC (Klebsiella aerogenes [14]) [µg/mL] | MIC (Klebsiella pneumoniae [16]) [µg/mL] | MIC (Staphylococcus aureus [17]) [µg/mL] | MIC (Staphylococcus aureus [18]) [µg/mL] | MIC (Salmonella typhimurium [19]) [µg/mL] | inhibition zone (IZ) [20] [mm] | MIC (Candida albicans [21]) [µg/mL] | also measured
C=CCN1C(=O)[C@]2(c3ccccc31)[C@H](c1cn(-c3ccccc3)nc1-c1ccccc1)[C@@](C#N)(C(=O)c1c[nH]c3ccccc13)C1CSCN12 (stereo partly specified) | 500 (≈ 743 µM) | 500 (≈ 743 µM) | 9 | 9 | 9 | 11 | 10 | 12 | 125 (≈ 186 µM) | 10 | 9 | 500 (≈ 743 µM) | 12 | 250 (≈ 372 µM) | 500 (≈ 743 µM) | 250 (≈ 372 µM) | 500 (≈ 743 µM) | 250 (≈ 372 µM) | 11 | 250 (≈ 372 µM) | inhibition zone (IZ) (Malassezia pachydermatis [15]): 10 mm
CC(=O)N1CCN(c2ccc(OCC3COC(Cn4ccnc4)(c4ccc(Cl)cc4Cl)O3)cc2)CC1 (stereo unspecified) [KETOCONAZOLE] | 6.25 (≈ 11.8 µM) | 6.25 (≈ 11.8 µM) | 30 | 20 | 30 | 26 | 18 | 14 | 6.25 (≈ 11.8 µM) | 30 | 22 | – | 28 | 25 (≈ 47 µM) | 6.25 (≈ 11.8 µM) | 6.25 (≈ 11.8 µM) | 6.25 (≈ 11.8 µM) | 30 (≈ 56.5 µM) | 14 | 25 (≈ 47 µM) | inhibition zone (IZ) (Malassezia pachydermatis [15]): 26 mm; MIC (Malassezia pachydermatis [22]): 25 µg/mL (≈ 47 µM)
C#CCN1C(=O)[C@]2(c3ccccc31)[C@H](c1cn(-c3ccccc3)nc1-c1ccccc1)[C@@](C#N)(C(=O)c1c[nH]c3ccccc13)C1CCCN12 (stereo partly specified) | 500 (≈ 766 µM) | 500 (≈ 766 µM) | 8 | 12 | 8 | 10 | 10 | 10 | 125 (≈ 191 µM) | 13 | 12 | 250 (≈ 383 µM) | 10 | 250 (≈ 383 µM) | 250 (≈ 383 µM) | 500 (≈ 766 µM) | 250 (≈ 383 µM) | 125 (≈ 191 µM) | 11 | – | inhibition zone (IZ) (Malassezia pachydermatis [15]): 9 mm
CCCCN1C(=O)[C@]2(c3ccccc31)[C@H](c1cn(-c3ccccc3)nc1-c1ccccc1)[C@@](C#N)(C(=O)c1c[nH]c3ccccc13)C1CSCN12 (stereo partly specified) | 500 (≈ 726 µM) | 250 (≈ 363 µM) | – | 9 | – | 10 | 9 | 8 | 250 (≈ 363 µM) | – | 9 | 500 (≈ 726 µM) | – | 500 (≈ 726 µM) | 500 (≈ 726 µM) | 250 (≈ 363 µM) | 500 (≈ 726 µM) | 250 (≈ 363 µM) | 10 | 125 (≈ 181 µM) | MIC (Malassezia pachydermatis [22]): 125 µg/mL (≈ 181 µM)
N#C[C@]1(C(=O)c2c[nH]c3ccccc23)C2CSCN2[C@]2(C(=O)Nc3ccccc32)[C@@H]1c1cn(-c2ccccc2)nc1-c1ccccc1 (stereo partly specified) | 500 (≈ 790 µM) | 500 (≈ 790 µM) | 8 | 10 | 8 | 11 | 11 | 14 | 500 (≈ 790 µM) | 10 | 13 | 500 (≈ 790 µM) | 9 | 500 (≈ 790 µM) | 500 (≈ 790 µM) | 500 (≈ 790 µM) | 500 (≈ 790 µM) | 500 (≈ 790 µM) | 13 | 1250 (≈ 1980 µM) | inhibition zone (IZ) (Malassezia pachydermatis [15]): 8 mm; MIC (Malassezia pachydermatis [22]): 250 µg/mL (≈ 395 µM)
N#C[C@]1(C(=O)c2c[nH]c3ccccc23)C2CCCN2[C@]2(C(=O)Nc3ccccc32)[C@@H]1c1cn(-c2ccccc2)nc1-c1ccccc1 (stereo partly specified) | 31.2 (≈ 50.8 µM) | 31.2 (≈ 50.8 µM) | 10 | 9 | 10 | 11 | 8 | 12 | 62.5 (≈ 102 µM) | 12 | 12 | 125 (≈ 203 µM) | 10 | 62.5 (≈ 102 µM) | 31.2 (≈ 50.8 µM) | 31.2 (≈ 50.8 µM) | 31.2 (≈ 50.8 µM) | 250 (≈ 407 µM) | 13 | 125 (≈ 203 µM) | inhibition zone (IZ) (Malassezia pachydermatis [15]): 8 mm; MIC (Malassezia pachydermatis [22]): 500 µg/mL (≈ 813 µM)
CN1C(=O)[C@]2(c3ccccc31)[C@H](c1cn(-c3ccccc3)nc1-c1ccccc1)[C@@](C#N)(C(=O)c1c[nH]c3ccccc13)C1CCCN12 (stereo partly specified) | 250 (≈ 398 µM) | 500 (≈ 795 µM) | 10 | 11 | 9 | 8 | 13 | 9 | 250 (≈ 398 µM) | 12 | 10 | 250 (≈ 398 µM) | – | 250 (≈ 398 µM) | 500 (≈ 795 µM) | 250 (≈ 398 µM) | 125 (≈ 199 µM) | 500 (≈ 795 µM) | 12 | – | –
C=CCN1C(=O)[C@]2(c3ccccc31)[C@H](c1cn(-c3ccccc3)nc1-c1ccccc1)[C@@](C#N)(C(=O)c1c[nH]c3ccccc13)C1CCCN12 (stereo partly specified) | 250 (≈ 382 µM) | 250 (≈ 382 µM) | – | 9 | – | – | 10 | – | 125 (≈ 191 µM) | 10 | – | 250 (≈ 382 µM) | – | 250 (≈ 382 µM) | 500 (≈ 764 µM) | 125 (≈ 191 µM) | 250 (≈ 382 µM) | 500 (≈ 764 µM) | – | 250 (≈ 382 µM) | MIC (Malassezia pachydermatis [22]): 500 µg/mL (≈ 764 µM)
N#C[C@]1(C(=O)c2c[nH]c3ccccc23)C2CCCN2[C@]2(C(=O)Nc3ccc([N+](=O)[O-])cc32)[C@@H]1c1cn(-c2ccccc2)nc1-c1ccccc1 (stereo partly specified) | 500 (≈ 758 µM) | 500 (≈ 758 µM) | 9 | 9 | 8 | 8 | 9 | 11 | 250 (≈ 379 µM) | 9 | 10 | 125 (≈ 189 µM) | 11 | 250 (≈ 379 µM) | 250 (≈ 379 µM) | 125 (≈ 189 µM) | 500 (≈ 758 µM) | 250 (≈ 379 µM) | 12 | 250 (≈ 379 µM) | MIC (Malassezia pachydermatis [22]): 500 µg/mL (≈ 758 µM)
